Where two headings read alike, the source gives them in different places. A value given as a limit tells only on which side of the number the result lay.

The values below come from US4663323A, “Tetrazole derivatives, anti-ulcer composition containing the same and method for treating ulcers” (Otsuka Pharmaceutical Co., Ltd., priority 1984, dated 1987).

For one data set, the system named is gastric juice secretion. The data set can be described thus: Shay rat pylorus ligation method (gastric juice secretion-inhibiting activity). The format is in vivo, male Wistar rats. The settings on record: sc, 4 h, 100 mg/kg s.c., 30 min before pylorus ligation, measured 4 hours after ligation. The protocol: The pharmacological activities of the compouns (I) were tested by a Shay rat pylorus ligation method (cf. H. Shay et al: Gastroenterol., Vol. 5, page 43, 1945) which is the most popular method for testing of gastric juice secretion-inhibiting activity. The test was carried out by using male Wistar rats, weighing about 170 g and fasting for 24 hours.
Test compounds were administered 30 minutes before the pylorus ligation in a dose of 100 mg/kg in subcutaneous route, and the volume, total acidity and/or pepsin activity of the gastric juice were measured 4 hours after the ligation. As a control, a saline solution was administered instead of the test compound. The inhibitory ratio (%) of the test compounds were calculated when the inhibitory activities of the control were counted as zero (0).
(§1) In the table, the inhibitory ratio (%) was evaluated as follows: […]

A further data set can be described thus: Acute Toxicity. The settings on record: rat, in vivo, po, male Wistar rats. How it is done:
The test compounds were orally administered to male Wistar rats, and the half lethal dose (LD50) was measured.

A further data set concerns Stress Ulcer. The data set can be described thus: Stress Ulcer. The format is in vivo, male Wistar rats. The settings on record: oral, 1×10^-3 mole in 0.5% CMC, before restraint and water dipping at 23° C. for 7 hours. How it is done: After male Wistar rats weighing about 170 g was fasted for 24 hours, the rats were restrained in a stress cage and dipped in water bath at 23° C. till chest of the animals. After 7 hours, the rats were killed and the stomach was isolated. Into the isolated stomach 10% formalin (8 ml) was poured and settled. The stomach was cut open at the greater curvature, and the length of each ulcer on the membrane was measured. Sum of the length of all ulcers was shown as ulcer index (UI). The test compound was orally administered to the rats before restraint in a stress cage in the form of 0.5% CMC suspension in a concentration of 1×10^-3 mole. As a control, only the solvent (CMC solution) was administered likewise.
The inhibitory ratio (%) of stress ulcer of the test compounds was calculated by the following equation: [formula]
as §1

The mark [1] stands for this setting: saline control = 0, read-out: Inhibitory ratio, Pepsin activity.
[2] abbreviates: saline control = 0, read-out: Inhibitory ratio, Total acidity.
Setting [3] is: saline control = 0, read-out: Inhibitory ratio, Volume of gastric juice.

Consider `CCN(C(=O)CCCCSc1nnnn1C)C1CCCCC1` [Compound 3, N-Ethyl-N-cyclohexyl-5-(1-methyl-1,2,3,4-tetrazol-5-yl)thio-valeramide], for which the inhibition in vivo at 100 mg/kg is 10 to 50% with gastric juice secretion (setting [1]), 10 to 50% in the data set on gastric juice secretion (setting [2]) and above 50% with gastric juice secretion (setting [3]). In “Acute Toxicity”, this compound showed an LD50 above 500 mg/kg.
Regarding `CCN(CC)C(=O)CCSCc1nnnn1CC` [Compound 14, N,N-Diethyl-3-(1-ethyl-1,2,3,4-tetrazol-5-yl)methylthio-propionamide], the inhibition in vivo at 100 mg/kg in the data set on gastric juice secretion (setting [3]) lay within 10 to 50%. Besides, in the data set on Stress Ulcer, the “Inhibitory ratio of stress ulcer” value is given as “++ (more than 60%)”.
With `CCCCn1nnnc1CSCCC(=O)NCC` [Compound 15, N-Ethyl-3-(1-butyl-1,2,3,4-tetrazol-5-yl)-methylthio-propionamide], the “Inhibitory ratio of stress ulcer” value in the data set with Stress Ulcer was “++ (more than 60%)”.
The same measure, in the same setting: to `CCN(CC)C(=O)CCCSCc1nnnn1CC` [Compound 18, N,N-Diethyl-4-(1-ethyl-1,2,3,4-tetrazol-5-yl)methylthio-butyramide] belongs “+ (30 to less than 60%)”.
In the case of `CCN(C(=O)CCCSc1nnnn1C)C1CCCCCC1` [Compound 20, N-Ethyl-N-cycloheptyl-4-(1-methyl-1,2,3,4-tetrazol-5-yl)thio-butyramide], the inhibition in vivo at 100 mg/kg in the data set on gastric juice secretion (setting [1]) was below 10%; with gastric juice secretion (setting [2]), 10 to 50%; with gastric juice secretion (setting [3]), above 50%.
With `CC(C)N(C(=O)CCCSc1nnnn1C)C(C)C` [Compound 21, N,N-Diisopropyl-4-(1-methyl-1,2,3,4-tetrazol-5-yl)thio-butyramide], the inhibition in vivo at 100 mg/kg in the data set with gastric juice secretion (setting [1]) was below 10%; with gastric juice secretion (setting [2]), 10 to 50%; in the data set with gastric juice secretion (setting [3]), above 50%.
The like results for `Cn1nnnc1SCCCC(=O)N(Cc1ccccc1)Cc1ccccc1` [Compound 22, N,N-Dibenzyl-4-(1-methyl-1,2,3,4-tetrazol-5-yl)thio-butyramide] were, in that order, below 10%, 10 to 50% and 10 to 50%.
Regarding `CCN(C(=O)CCCCc1nnnn1C1CCCCC1)C1CCCCC1` [Compound 23, N-Ethyl-N-cyclohexyl-5-(1-cyclohexyl-1,2,3,4-tetrazol-5-yl)valeramide], the values for the inhibition in vivo at 100 mg/kg with gastric juice secretion (setting [1]), in the data set on gastric juice secretion (setting [2]) and in the data set with gastric juice secretion (setting [3]) were below 10%, 10 to 50% and 10 to 50%, respectively. Also, the “Inhibitory ratio of stress ulcer” value in the data set with Stress Ulcer was “+ (30 to less than 60%)”.
Take `CC(C)N(C(=O)CCCSc1nnnn1C)C1CCCCC1` [Compound 24, N-Isopropyl-N-cyclohexyl-4-(1-methyl-1,2,3,4-tetrazol-5-yl)thio-butyramide]: the results for the inhibition in vivo at 100 mg/kg with gastric juice secretion (setting [1]), in the data set on gastric juice secretion (setting [2]) and with gastric juice secretion (setting [3]) were below 10%, 10 to 50% and above 50%, respectively.
Take `Cn1nnnc1SCCCC(=O)N1CCCCC1` [Compound 25, 1-Methyl-5-(3-piperidylcarbonylpropyl)thio-1,2,3,4-tetrazole]: the inhibition in vivo at 100 mg/kg with gastric juice secretion (setting [1]), in the data set on gastric juice secretion (setting [2]) and in the data set with gastric juice secretion (setting [3]) was 10 to 50% each time.
In the case of `Cn1nnnc1SCCCC(=O)Nc1ccccn1` [Compound 27, N-(2-Pyridyl)-4-(1-methyl-1,2,3,4-tetrazol-5-yl)thio-butyramide], the inhibition in vivo at 100 mg/kg with gastric juice secretion (setting [1]), in the data set with gastric juice secretion (setting [2]) and in the data set with gastric juice secretion (setting [3]) was 10 to 50% throughout.
For the compound `CCN(C(=O)CCCSc1nnnn1C)C1CCCC1` [Compound 29, N-Ethyl-N-cyclopentyl-4-(1-methyl-1,2,3,4-tetrazol-5-yl)thio-butyramide], the inhibition in vivo at 100 mg/kg in the data set on gastric juice secretion (setting [1]) is 10 to 50%; with gastric juice secretion (setting [2]) it was above 50%; in the data set on gastric juice secretion (setting [3]) it was above 50%.
Turning to `CCN(CC1CCCCC1)C(=O)CCCSc1nnnn1C` [Compound 30, N-Ethyl-N-cyclohexylmethyl-4-(1-methyl-1,2,3,4-tetrazol-5-yl)thio-butyramide], the inhibition in vivo at 100 mg/kg with gastric juice secretion (setting [1]) was 10 to 50%; in the data set with gastric juice secretion (setting [2]) it was 10 to 50%; in the data set on gastric juice secretion (setting [3]), above 50%.
In the case of `CCN(C(=O)CCCSc1nnnn1-c1ccccc1)C1CCCCC1` [Compound 31, N-Ethyl-N-cyclohexyl-4-(1-phenyl-1,2,3,4-tetrazol-5-yl)thio-butyramide], the values for the inhibition in vivo at 100 mg/kg with gastric juice secretion (setting [1]), with gastric juice secretion (setting [2]) and in the data set on gastric juice secretion (setting [3]) were 10 to 50%, 10 to 50% and above 50%, respectively.
For `CC(=O)N1CCN(C(=O)CCCSc2nnnn2C)CC1` [Compound 32, 1-Methyl-5-[3-(4-acetyl-1-piperazinylcarbonyl)propyl]thio-1,2,3,4-tetrazol], the inhibition in vivo at 100 mg/kg in the data set on gastric juice secretion (setting [1]), with gastric juice secretion (setting [2]) and in the data set on gastric juice secretion (setting [3]) was 10 to 50% in each case.
With `Cn1nnnc1SCCCC(=O)N1CCOCC1` [Compound 33, 1-Methyl-5-(3-morpholinocarbonylpropyl)thio-1,2,3,4-tetrazole], the inhibition in vivo at 100 mg/kg in the data set with gastric juice secretion (setting [1]), with gastric juice secretion (setting [2]) and with gastric juice secretion (setting [3]) was 10 to 50% each time.
Consider `CCN(CC)C(=O)CCCCc1nnnn1C` [Compound 34, N,N-Diethyl-5-(1-methyl-1,2,3,4-tetrazol-5-yl)valeramide], for which the inhibition in vivo at 100 mg/kg in the data set with gastric juice secretion (setting [1]), in the data set on gastric juice secretion (setting [2]) and with gastric juice secretion (setting [3]) was 10 to 50% each time. Moreover, the “Inhibitory ratio of stress ulcer” value with Stress Ulcer is given as “+ (30 to less than 60%)”.
For `CCN(CC)C(=O)CCCCc1nnnn1-c1ccccc1` [Compound 35, N,N-Diethyl-5-(1-phenyl-1,2,3,4-tetrazol-5-yl)valeramide], the inhibition in vivo at 100 mg/kg in the data set with gastric juice secretion (setting [1]), in the data set with gastric juice secretion (setting [2]) and with gastric juice secretion (setting [3]) was 10 to 50% in each case. Moreover, the “Inhibitory ratio of stress ulcer” value in the data set with Stress Ulcer is listed as “+ (30 to less than 60%)”.
For the compound `CCN(C(=O)CCSCc1nnnn1CC)C1CCCCC1` [Compound 36, N-Ethyl-N-cyclohexyl-3-(1-ethyl-1,2,3,4-tetrazol-5-yl)methylthio-propionamide], the inhibition in vivo at 100 mg/kg in the data set on gastric juice secretion (setting [3]) was above 50%.
For `Cn1nnnc1SCCCC(=O)O` [Compound 38, 4-(1-methyl-1,2,3,4-tetrazol-5-yl)thiobutyric acid], the inhibition in vivo at 100 mg/kg in the data set on gastric juice secretion (setting [3]) lay within 10 to 50%.
Still for that read-out and setting: with `Cn1nnnc1SCCCC(=O)N(CCO)c1ccccc1` [Compound 40, N-(2-Hydroxyethyl)-N-phenyl-4-(1-methyl-1,2,3,4-tetrazol-5-yl)thio-butyramide] the figure was 10 to 50%.
On the same count and under the same terms, with `Cn1nnnc1SCCCC(=O)Nc1ccc(S(N)(=O)=O)cc1` [Compound 41, N-(4-Sulfamoylphenyl)-4-(1-methyl-1,2,3,4-tetrazol-5-yl)thio-butyramide] the figure was 10 to 50%; with `Cc1c(Cl)cccc1NC(=O)CCCSc1nnnn1C` [Compound 42, N-(2-Methyl-3-chlorophenyl)-4-(1-methyl-1,2,3,4-tetrazol-5-yl)thio-butyramide], 10 to 50%; with `Cn1nnnc1SCCCC(=O)Nc1ccc([N+](=O)[O-])cc1` [Compound 43, N-(4-Nitrophenyl)-4-(1-methyl-1,2,3,4-tetrazol-5-yl)thio-butyramide], 10 to 50%.
For `CCCCCCNC(=O)CCCCc1nnnn1-c1ccccc1` [Compound 48, N-(n-Hexyl)-5-(1-phenyl-1,2,3,4-tetrazol-5-yl)valeramide], the “Inhibitory ratio of stress ulcer” value with Stress Ulcer is listed as “+ (30 to less than 60%)”.
Same read-out and setting: to `CC(C)N(C(=O)CCCCc1nnnn1-c1ccccc1)C1CCCCC1` [Compound 50, N-Isopropyl-N-cyclohexyl-5-(1-phenyl-1,2,3,4-tetrazol-5-yl)valeramide] belongs “++ (more than 60%)”.
On to `CCN(C(=O)CCCCc1nnnn1C)C1CCCCC1` [Compound 51, N-Ethyl-N-cyclohexyl-5-(1-methyl-1,2,3,4-tetrazol-5-yl)valeramide], for which the inhibition in vivo at 100 mg/kg with gastric juice secretion (setting [3]) was 10 to 50%. In addition, the “Inhibitory ratio of stress ulcer” value with Stress Ulcer was “+ (30 to less than 60%)”.
On the same counts, the results for `CCN(CC)C(=O)CCCCc1nnn[nH]1` [Compound 52, N,N-Diethyl-5-(1,2,3,4-tetrazol-5-yl)-valeramide] are 10 to 50% and “+ (30 to less than 60%)”.
In the case of `CCc1ccc(-n2nnnc2CSCCC(=O)O)cc1` [Compound 53, 3-[1-(4-Ethylphenyl)-1,2,3,4-tetrazol-5-yl]-methylthio-propionic acid], the inhibition in vivo at 100 mg/kg with gastric juice secretion (setting [3]) lay within 10 to 50%.
Same read-out and setting: with `COC(=O)CCCCc1nnnn1C1CCCCC1` [Compound 54, Methyl 5-(1-cyclohexyl-1,2,3,4-tetrazol-5-yl)valerate] the figure was 10 to 50%.
